Measurements taken from patent US10787447B2, “Pharmaceutical compounds” (Heptares Therapeutics Limited, priority 2018, dated 2020).
Like-named read-outs stand apart in the source and are kept apart here.

Tests used:
[1] = biological target: T1, human muscarinic M1 receptor (Homo sapiens, UniProt P11229); assay: Alphascreen Surefire phospho-ERK1/2 functional assay, M1; format: cell-based; conditions: for EC50: phospho-ERK1/2; for Emax: CHO, read-out: % Emax cf. ACh, M1, CHO cells stably expressing human M1; for Emax / % Emax cf. ACh, M1: Emax relative to ACh
T1 sequence (P11229 1-460): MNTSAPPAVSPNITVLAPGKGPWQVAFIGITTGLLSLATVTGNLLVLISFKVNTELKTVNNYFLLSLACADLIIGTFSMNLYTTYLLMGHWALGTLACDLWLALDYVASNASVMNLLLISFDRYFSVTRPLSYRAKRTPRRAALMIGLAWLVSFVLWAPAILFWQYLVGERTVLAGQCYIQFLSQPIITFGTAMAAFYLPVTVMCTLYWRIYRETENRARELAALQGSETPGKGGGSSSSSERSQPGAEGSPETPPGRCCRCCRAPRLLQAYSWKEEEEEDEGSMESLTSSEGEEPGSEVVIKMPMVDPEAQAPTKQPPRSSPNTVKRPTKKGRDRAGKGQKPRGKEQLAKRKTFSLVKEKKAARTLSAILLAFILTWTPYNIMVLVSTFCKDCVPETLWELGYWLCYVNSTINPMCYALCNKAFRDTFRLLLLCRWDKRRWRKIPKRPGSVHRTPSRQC
Protocol: (§1) Functional assays were performed using the Alphascreen Surefire phospho-ERK1/2 assay (Crouch & Osmond, Comb. Chem. High Throughput Screen, 2008). ERK1/2 phosphorylation is a downstream consequence of both Gq/11 and Gi/o protein coupled receptor activation, making it highly suitable for the assessment of M1, M3 (Gq/11 coupled) and M2, M4 receptors (Gi/o coupled), rather than using different assay formats for different receptor subtypes. CHO cells stably expressing the human muscarinic M1, M2, M3 or M4 receptor were plated (25K/well) onto 96-well tissue culture plates in MEM-alpha+10% dialysed FBS. Once adhered, cells were serum-starved overnight. Agonist stimulation was performed by the addition of 5 μL agonist to the cells for 5 min (37° C.). Media was removed and 50 μL of lysis buffer added. After 15 min, a 4 μL sample was transferred to 384-well plate and 7 μL of detection mixture added.
For the vast majority of examples at least two diastereomers exist and these have been separated, unless otherwise stated, using the techniques of reversed phase HPLC, chiral HPLC or chiral SFC. Isomer assignment (Isomer 1, Isomer 2, etc.) is based on the retention time of the compound using the separation technique that was performed in the final purification step. By implication, this could be reversed phase HPLC, chiral HPLC or chiral SFC retention time, and this will vary from compound to compound.

[2] = biological target: T2, human muscarinic M4 receptor (Homo sapiens, UniProt P08173); assay: Alphascreen Surefire phospho-ERK1/2 functional assay, M4; format: cell-based; conditions: for EC50: phospho-ERK1/2; for Emax: CHO, read-out: % Emax cf. ACh, M4, CHO cells stably expressing human M4; for Emax / % Emax cf. ACh, M4: Emax relative to ACh
T2 sequence (P08173 1-479): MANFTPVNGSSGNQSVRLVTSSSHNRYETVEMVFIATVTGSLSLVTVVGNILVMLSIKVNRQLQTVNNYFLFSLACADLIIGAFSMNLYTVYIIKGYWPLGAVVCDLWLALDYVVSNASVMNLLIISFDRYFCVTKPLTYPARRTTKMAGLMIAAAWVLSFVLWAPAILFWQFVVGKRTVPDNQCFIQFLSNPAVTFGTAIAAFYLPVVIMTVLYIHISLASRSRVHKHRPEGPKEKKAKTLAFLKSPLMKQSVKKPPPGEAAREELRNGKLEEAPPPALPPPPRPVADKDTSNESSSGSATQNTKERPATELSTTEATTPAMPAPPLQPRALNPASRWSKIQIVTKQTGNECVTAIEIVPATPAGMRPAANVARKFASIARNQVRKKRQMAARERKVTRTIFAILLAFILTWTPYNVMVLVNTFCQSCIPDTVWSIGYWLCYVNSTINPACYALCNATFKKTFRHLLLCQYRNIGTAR
Protocol: as §1, with “ERK1/2” for “Functional assays were performed using the Alphascreen Surefire phospho-ERK1/2 assay (Crouch & Osmond, Comb. Chem. High Throughput Screen, 2008). ERK1/2”
Isomer assignment (Isomer 1, Isomer 2, etc.) is based on the retention time of the compound using the separation technique that was performed in the final purification step. By implication, this could be reversed phase HPLC, chiral HPLC or chiral SFC retention time, and this will vary from compound to compound.

[3] = CHO cells stably expressing human M1, read-out: pEC50 M1 (converted)
[4] = CHO cells stably expressing human M4, read-out: pEC50 M4 (converted)
[5] = CHO cells stably expressing human M1
[6] = CHO cells stably expressing human M4
[7] = pEC50 M1, CHO cells stably expressing human M1
[8] = pEC50 M4, CHO cells stably expressing human M4

Row | Compound | EC50 [1, 3] | Emax [1] | EC50 [2, 4] | Emax [2] | EC50 [1, 7] | EC50 [2, 8] | other results
1 | CCOC(=O)N1C2COCC1CC(N1CCC(c3cccc(OC)n3)CC1)C2 (single isomer, unassigned) [Example 2-1 Isomer 1, Ethyl 7-[4-(6-methoxypyridin-2-yl)piperidin-1-yl]-3-oxa-9-azabicyclo[3.3.1]nonane-9-carboxylate] | 251 nM | 44% | > 20000 nM | 17% |  |  | 
2 | CCOC(=O)N1C2COCC1CC(N1CCC(c3cccc(OC)n3)CC1)C2 (single isomer, unassigned) [Example 2-1 Isomer 2, Ethyl 7-[4-(6-methoxypyridin-2-yl)piperidin-1-yl]-3-oxa-9-azabicyclo[3.3.1]nonane-9-carboxylate] | 158 nM |  |  |  |  |  | % Emax cf. ACh, M1 [1, 5]: 40%; % Emax cf. ACh, M4 [2, 6]: 20%
3 | CCOC(=O)N1C2COCC1CC(N1CCC(C#N)(c3ccccn3)CC1)C2 (single isomer, unassigned) [Example 3-1 Isomer 1, Ethyl 7-[4-cyano-4-(pyridin-2-yl)piperidin-1-yl]-3-oxa-9-azabicyclo[3.3.1]nonane-9-carboxylate] | 1380 nM | 97% | 129 nM | 94% |  |  | 
4 | CCOC(=O)N1C2COCC1CC(N1CCC(C#N)(c3ccccn3)CC1)C2 (single isomer, unassigned) [Example 3-1 Isomer 2, Ethyl 7-[4-cyano-4-(pyridin-2-yl)piperidin-1-yl]-3-oxa-9-azabicyclo[3.3.1]nonane-9-carboxylate] |  |  | 309 nM |  |  |  | % Emax cf. ACh, M1 [1, 5]: 79%; % Emax cf. ACh, M4 [2, 6]: 78%
5 | CCOC(=O)N1C2COCC1CC(N1CCC3(CC1)CNC(=O)C3)C2 (single isomer, unassigned) [Example 5-2 Isomer 1, Ethyl 7-(3-oxo-2,8-diazaspiro[4.5]dec-8-yl)-3-oxa-9-azabicyclo[3.3.1]nonane-9-carboxylate] |  |  |  | 36% | 316 nM | 302 nM | % Emax cf. ACh, M1 ([1]; CHO cells stably expressing human M1, listed as 5-2 Isomer 1): 82%
6 | CCOC(=O)N1C2COCC1CC(N1CCC3(CC1)CNC(=O)O3)C2 (single isomer, unassigned) [Example 5-3 Isomer 1, Ethyl 7-(2-oxo-1-oxa-3,8-diazaspiro[4.5]dec-8-yl)-3-oxa-9-azabicyclo[3.3.1]nonane-9-carboxylate] | 1450 nM | 75% | 832 nM | 33% |  |  | 
7 | CCOC(=O)N1C2COCC1CC(N1CCC3(CC1)OC(=O)NC3CC)C2 (single isomer, unassigned) [Example 5-4 Isomer 1b, Ethyl 7-(4-ethyl-2-oxo-1-oxa-3,8-diazaspiro[4.5]dec-8-yl)-3-oxa-9-azabicyclo[3.3.1]nonane-9-carboxylate] |  |  |  |  | > 20000 nM | 316 nM | % Emax cf. ACh, M1 ([1]; CHO cells stably expressing human M1, listed as 5-4 Isomer 1b): 9%; % Emax cf. ACh, M4 ([2]; CHO cells stably expressing human M4, listed as 5-4 Isomer 1b): 30%
8 | CCOC(=O)N1C2COCC1CC(N1CCC3(CC1)OC(=O)NC3CC)C2 (single isomer, unassigned) [Example 5-4 Isomer 2a, Ethyl 7-(4-ethyl-2-oxo-1-oxa-3,8-diazaspiro[4.5]dec-8-yl)-3-oxa-9-azabicyclo[3.3.1]nonane-9-carboxylate] |  |  |  |  | 977 nM | 200 nM | % Emax cf. ACh, M1 ([1]; CHO cells stably expressing human M1, listed as 5-4 Isomer 2a): 75%; % Emax cf. ACh, M4 ([2]; CHO cells stably expressing human M4, listed as 5-4 Isomer 2a): 61%
9 | CCOC(=O)N1C2COCC1CC(N1CCC(N(CC(C)(C)C)C(C)=O)CC1)C2 (single isomer, unassigned) [Example 6-2 Isomer 1, Ethyl 7-{4-[acetyl(2,2-dimethylpropyl)amino]piperidin-1-yl}-3-oxa-9-azabicyclo[3.3.1]nonane-9-carboxylate] | 617 nM | 71% | 1050 nM | 45% |  |  | 
10 | CCOC(=O)N1C2COCC1CC(N1CCC(C(=O)NC3(C)CCC3)CC1)C2 (single isomer, unassigned) [Example 7-1 Isomer 1, Ethyl 7-{4-[(1-methylcyclobutyl)carbamoyl]piperidin-1-yl}-3-oxa-9-azabicyclo[3.3.1]nonane-9-carboxylate] | 380 nM |  | 324 nM |  |  |  | % Emax cf. ACh, M1 ([1]; CHO cells stably expressing human M1, listed as 7-1 Isomer 1): 91%; % Emax cf. ACh, M4 ([2]; CHO cells stably expressing human M4, listed as 7-1 Isomer 1): 76%
11 | CCOC(=O)N1C2COCC1CC(N1CCC(C(=O)NC3(C)CCC3)CC1)C2 (single isomer, unassigned) [Example 7-1 Isomer 2, Ethyl 7-{4-[(1-methylcyclobutyl)carbamoyl]piperidin-1-yl}-3-oxa-9-azabicyclo[3.3.1]nonane-9-carboxylate] | 1740 nM |  | > 20000 nM |  |  |  | % Emax cf. ACh, M1 ([1]; CHO cells stably expressing human M1, listed as 7-1 Isomer 2): 62%; % Emax cf. ACh, M4 ([2]; CHO cells stably expressing human M4, listed as 7-1 Isomer 2): 54%
12 | CCOC(=O)N1C2COCC1CC(N1CCC(C(=O)NCC(C)C)CC1)C2 (single isomer, unassigned) [Example 7-2 Isomer 1, Ethyl 7-{4-[(2-methylpropyl)carbamoyl]piperidin-1-yl}-3-oxa-9-azabicyclo[3.3.1]nonane-9-carboxylate] |  | 96% |  | 72% | 79.4 nM | 457 nM | 
13 | CCOC(=O)N1C2COCC1CC(N1CCC(C(=O)N3CCCCCC3)CC1)C2 (single isomer, unassigned) [Example 7-4 Isomer 1, Ethyl 7-[4-(azepan-1-ylcarbonyl)piperidin-1-yl]-3-oxa-9-azabicyclo[3.3.1]nonane-9-carboxylate] | 550 nM | 85% | > 20000 nM | 65% |  |  | 
14 | COC(=O)N1C2COCC1CC(N1CCC(N(CC3(C)CCC3)C(C)=O)CC1)C2 (single isomer, unassigned) [Example 8-1 Isomer 1, Methyl 7-(4-(N-((1-methylcyclobutyl)methyl)acetamido)piperidin-1-yl)-3-oxa-9-azabicyclo[3.3.1]nonane-9-carboxylate] |  |  |  |  | 85.1 nM | 155 nM | % Emax cf. ACh, M1 ([1]; CHO cells stably expressing human M1, listed as 8-1 Isomer 1): 123%; % Emax cf. ACh, M4 ([2]; CHO cells stably expressing human M4, listed as 8-1 Isomer 1): 77%
